Results from ChEMBL document CHEMBL1142006, “Chemistry and biology of mercaptoacetamides as novel histone deacetylase inhibitors” (Bioorg Med Chem Lett, 2005).

Columns and labels:
MCF7 = assay: Antiproliferative activity against MCF-7 cancer cell line; assay type: functional, cell-based; details: Homo sapiens
Homo sapiens = species: Homo sapiens; assay: Antiproliferative activity against SQ-20B cancer cells; assay type: functional; details: Cancer cell lines
PC-3 = assay: Antiproliferative activity against PC-3 cancer cells; assay type: functional, cell-based; details: Homo sapiens
HeLa = assay: Antiproliferative activity towards human HeLa cancer cells; assay type: functional, cell-based

| Structure (SMILES) | IC50 (MCF7) | IC50 (Homo sapiens) | IC50 (PC-3) | IC50 (HeLa) |
| --- | --- | --- | --- | --- |
| O=C(CS)NCCCCCC(=O)Nc1cnc2ccccc2c1 | 80 µM | 100 µM | 50 µM |  |
| O=C(CS)NCCCCCC(=O)Nc1cccc2cccnc12 | 42 µM | 31 µM | 33 µM | 30 µM |
| CN(C)c1ccc(C(=O)NCCCCCNC(=O)CS)cc1 | 125 µM | 100 µM | 110 µM | 108 µM |
| O=C(CS)NCCCCCNC(=O)c1ccc(-c2ccccc2)cc1 |  | 130 µM | 100 µM | 80 µM |
